Source: patent US12370192B2, “Azole-fused pyridazin-3(2H)-one derivatives” (TAKEDA PHARMACEUTICAL COMPANY LIMITED, priority 2019, dated 2025)

Target: T1, human GPR139 receptor (Homo sapiens, UniProt Q6DWJ6)
T1 construct: expressed in transfected cells; host or cells: T-REx-CHO (Thermo Fisher Scientific), doxycycline-induced
T1 sequence (Q6DWJ6 1-353): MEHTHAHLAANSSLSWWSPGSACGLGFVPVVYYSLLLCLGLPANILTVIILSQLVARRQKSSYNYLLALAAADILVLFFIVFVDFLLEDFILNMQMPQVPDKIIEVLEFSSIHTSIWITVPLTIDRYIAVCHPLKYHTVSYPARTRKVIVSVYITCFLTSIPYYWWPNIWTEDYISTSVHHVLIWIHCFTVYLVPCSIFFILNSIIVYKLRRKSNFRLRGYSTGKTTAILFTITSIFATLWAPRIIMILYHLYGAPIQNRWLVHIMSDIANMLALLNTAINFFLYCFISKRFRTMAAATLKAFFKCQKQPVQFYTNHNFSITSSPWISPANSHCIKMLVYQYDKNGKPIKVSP
Test: Measurement of GPR139 Activation Via Calcium Signaling (FLIPR, T-REx-CHO cells)
Type: cell-based
Conditions: T-REx-CHO cells stably expressing human GPR139, 11-point dose response, 10 μM maximum concentration, read-out: GPR139 Potency (pEC50) (converted)
Protocol: Measurement of GPR139 Activation Via Calcium Signaling
This cell-based assay measures the ability of compounds to activate GPR139 in stably transfected T-REx™-CHO cells. T-REx™-CHO cells (Thermo Fisher Scientific®) are stably expressed with human GPR139 receptor, whose expression is controlled by a tetracycline-inducible element. The cells are cultured in medium containing F-12K nutrient mixture-Kaighn's modification, TripleLE™ Express (1×)-phenol red, Dulbecco's phosphate-buffered saline (1×), 10% tetracycline-free FBS, Blasticidin S HCl (10 μg/mL) and Hygromycin B (200 μg/mL). The cells are introduced into the wells of a 384-well black clear bottom plate (Costar®) at 10,000 cells/well. GPR139 receptor expression is induced with 2 μg/mL doxycycline (Sigma D9891). The plate is allowed to stand at room temperature for 10-30 minutes and then incubated at 37° C. and 5% CO2 for 17 hours prior to assay.
Culture media is removed from cells and 45 μL of 1× calcium dye (2.5 mM) is added to each well and incubated at 37° C. and 5% CO2 for 40 minutes. The plate is removed from the incubator and allowed to stand at RT for 20 minutes without a plate cover prior to measurement of calcium signaling. The calcium dye is prepared by adding 10 mL of assay buffer (Hank's Balanced Salt Solution (1×), 1 mM HEPES at pH 7.4) to one vial of calcium dye (FLIPR® Calcium 5 Assay Kit; Molecular Devices) at room temperature, vortexing the mixture until homogenous, and transferring the dye to a 250 mL flask using 10 mL of assay, buffer to rinse the vial. The dye is subsequently transferred to a conical flask, which is filled to the 200 mL mark with assay buffer, and 1 mL of […] probenecid solution (142.68 mg/mL in 1M NaOH aq) is added.
Example compounds suspended in DMSO are received from compound management in microtiter plates (0.25 μL/well) and are diluted in assay buffer (25 μL). Following incubation of the cell plate, the Example compounds are added to the cells (11-point dose response, 10 μM maximum concentration) using a FLIPR® Tetra system (Molecular Devices) and fluorescence is measured continuously for 1 minute. EC50 curves are generated with a four-parameter logistic equation using GraphPad Prism® 6, and activation of GPR139 for each example compound is reported as pEC50.

**Q.** Cc1nn(C2CC2)c2cnn(CC(=O)N[C@@H](C)c3ccc(OC(F)(F)F)cc3)c(=O)c12 [Example 109, (S)-2-(1-cyclopropyl-3-methyl-4-oxo-1,4-dihydro-5H-pyrazolo[3,4-d]pyridazin-5-yl)-N-(1-(4-(trifluoromethoxy)phenyl)ethyl)acetamide] was tested. Which EC50 did it give?
**A.** The EC50 was 282 nM.

**Q.** For Cc1ccc([C@H](C)NC(=O)Cn2ncc3c(cnn3C3CC3)c2=O)cc1 [Example 91, (S)-2-(1-cyclopropyl-4-oxo-1,4-dihydro-5H-pyrazolo[3,4-d]pyridazin-5-yl)-N-(1-(p-tolyl)ethyl)acetamide], which EC50 is on record?
**A.** Its EC50 is 58.9 nM.

**Q.** Cn1nc(C2CC2)c2c(=O)n(CC(=O)N3CCCC3c3ccc(Cl)cc3)ncc21 (stereo not drawn) [Example 84, 5-(2-(2-(4-chlorophenyl)pyrrolidin-1-yl)-2-oxoethyl)-3-cyclopropyl-1-methyl-1,5-dihydro-4H-pyrazolo[3,4-d]pyridazin-4-one] was tested. Which EC50 did it give?
**A.** Its EC50 is 407 nM.

**Q.** For Cc1nn(C(C)C)c2c(C)nn(CC(=O)N[C@@H](C)c3ccc(OC(F)(F)F)cc3)c(=O)c12 [Example 100, (S)-2-(1-isopropyl-3,7-dimethyl-4-oxo-1,4-dihydro-5H-pyrazolo[3,4-d]pyridazin-5-yl)-N-(1-(4-(trifluoromethoxy)phenyl)ethyl)acetamide], which EC50 is on record?
**A.** The EC50 was 363 nM.

**Q.** How did the EC50 turn out when Cc1ccc([C@H](C)NC(=O)Cn2ncc3c(cnn3C3CC3)c2=O)c(F)c1 [Example 90, (S)-2-(1-cyclopropyl-4-oxo-1,4-dihydro-5H-pyrazolo[3,4-d]pyridazin-5-yl)-N-(1-(2-fluoro-4-methylphenyl)ethyl)acetamide] was run?
**A.** The EC50 was 58.9 nM.

**Q.** Which EC50 does the source give for Cc1ccc([C@H](C)NC(=O)Cn2ncc3c(c(C)nn3C(C)C)c2=O)cc1 [Example 46, (S)-2-(1-isopropyl-3-methyl-4-oxo-1,4-dihydro-5H-pyrazolo[3,4-d]pyridazin-5-yl)-N-(1-(p-tolyl)ethyl)acetamide] here?
**A.** The EC50 was 77.6 nM.

**Q.** Which EC50 does the source give for Cc1nn(CC(=O)N[C@@H](C)c2ccc(OC(F)(F)F)cc2)c(=O)c2cnn(C3CC3)c12 [Example 79, (S)-2-(1-cyclopropyl-7-methyl-4-oxo-1,4-dihydro-5/1-pyrazolo[3,4-d]pyridazin-5-yl)-N-(1-(4-(trifluoromethoxy)phenyl)ethyl)acetamide] here?
**A.** The EC50 was 257 nM.

**Q.** Cc1nn(CC(=O)N[C@@H](C)c2ccc(C(F)(F)F)cc2)c(=O)c2cnn(C3CC3)c12 [Example 78, (S)-2-(1-cyclopropyl-7-methyl-4-oxo-1,4-dihydro-5H-pyrazolo[3,4-d]pyridazin-5-yl)-N-(1-(4-(trifluoromethyl)phenyl)ethyl)acetamide] was tested. Which EC50 did it give?
**A.** Its EC50 is 79.4 nM.

**Q.** With Cc1nn(CC(=O)N[C@@H](C)c2ccc(OC(F)(F)F)cc2)c(=O)c2cnn(C(C)C)c12 [Example 76, (S)-2-(1-isopropyl-7-methyl-4-oxo-1,4-dihydro-5H-pyrazolo[3,4-d]pyridazin-5-yl)-N-(1-(4-(trifluoromethoxy)phenyl)ethyl)acetamide] as the molecule, how does the EC50 read?
**A.** Its EC50 is 1020 nM.

**Q.** For CC(C)n1nc(C2CC2)c2c(=O)n(CC(=O)N[C@@H](C)c3ccc(OC(F)(F)F)cc3)ncc21 [Example 96, (S)-2-(3-cyclopropyl-1-isopropyl-4-oxo-1,4-dihydro-5H-pyrazolo[3,4-d]pyridazin-5-yl)-N-(1-(4-(trifluoromethoxy)phenyl)ethyl)acetamide], which EC50 is on record?
**A.** The EC50 was 501 nM.

**Q.** How did the EC50 turn out when Cc1ccc([C@H](C)NC(=O)Cn2nc(C)c3c(cnn3C(C)C)c2=O)c(F)c1 [Example 83, (S)—N-(1-(2-fluoro-4-methylphenyl)ethyl)-2-(1-isopropyl-7-methyl-4-oxo-1,4-dihydro-5H-pyrazolo[3,4-d]pyridazin-5-yl)acetamide] was run?
**A.** The EC50 was 93.3 nM.

**Q.** CC(C)n1nc(C2CC2)c2c(=O)n(CC(=O)N[C@@H](C)c3ccc(C(F)(F)F)cc3)ncc21 [Example 98, (S)-2-(3-cyclopropyl-1-isopropyl-4-oxo-1,4-dihydro-5H-pyrazolo[3,4-d]pyridazin-5-yl)-N-(1-(4-(trifluoromethyl)phenyl)ethyl)acetamide] was tested. Which EC50 did it give?
**A.** Its EC50 is 275 nM.
